What all share (type): cell-based
One test relates to filaggrin. The test can be described thus: Filaggrin mRNA expression (RT-PCR) in HaCaT human keratinocytes. The settings on record: HaCaT cells, fucosterol 5, 10, 20 μM, 24 hrs, FIG. 11. As to the method: (§1) HaCaT human keratinocytes were incubated in a Dulbecco's Modified Eagle's Media (DMEM) medium including 10% fetal bovine serum and then put in a 6-well plate with 2×10^5 cell/ml (the final volume of 3 ml). After being incubated for 24 hrs, the medium was removed and fucosterol which was dissolved in the DMEM medium was treated at 5, 10, and 20 μM concentrations, respectively. After 24 hrs, the total RNA was collected by using a TRIzol reagent (Invitrogen, Carlsbad, Calif., USA) and reverse-transcribed and then a reverse transcription-polymerase chain reaction (RT-PCR) analysis was performed below. First, for cDNA synthesis, the RNA was reverse-transcribed by reverse transcriptase. The RT-PCR was performed by specific primers below and the result was illustrated in FIG. 11.

The test system of test [1] is involucrin. The test can be described thus: Involucrin protein expression (western blot) in HaCaT human keratinocytes. The settings on record: HaCaT cells, fucosterol 5, 10, 20 μM, 24 hrs, FIG. 10. As to the method: (§2) HaCaT human keratinocytes were incubated in a Dulbecco's Modified Eagle's Media (DMEM) medium including 10% fetal bovine serum and then put in a 6-well plate with 2×10^5 cell/ml (the final volume of 3 ml). After being incubated for 24 hrs, the medium was removed and fucosterol which was dissolved in the DMEM medium was treated at 5, 10, and 20 μM concentrations, respectively. After 24 hrs, the HaCaT human keratinocytes were lysed with a NP40 buffer solution including proteinase inhibitor cocktail. The protein amount extracted from the HaCaT human keratinocytes was quantified by using a Bradford method. The sample was boiled for 5 min and then the same amount of protein ([…]) was isolated by electrophoresis with 10% SDS-PAGE. The isolated proteins after electrophoresis were transferred to a nitrocellular membrane and western blot was performed. A primary antibody was reacted and the nitrocellular membrane was washed three times by using Tris-buffer saline tween20 (TBST) for 10 min. In this case, the kind and the dilution of the primary antibody used in the present invention is 1:1000. In a secondary antibody reaction, a secondary antibody was put in the membrane performing the primary antibody reaction and reacted for 2 hrs at room temperature. In this case, a dilution of the secondary antibody was 1:5000. […]
A general note: In western blotting, separated proteins are transferred to a membrane and probed.

Test [2] deals with TRP-1 (tyrosinase-related protein 1). The test can be described thus: TRP-1 protein expression (western blot) in B16F10 melanoma cells. The settings on record: 200 nM α-MSH, fucosterol 5 and 20 μM, 24 hrs, FIG. 6. As to the method:
B16F10 melanoma cells were incubated in a DMEM medium including 10% fetal bovine serum and then added in a 6-well plate with 2.5×10^5 cell/mL (the final volume of 3 mL). After being incubated for 24 hrs, the medium was removed and fucosterol which was dissolved in the DMEM medium including 200 nM α-MSH was treated at 5 and 20 μM of concentrations, respectively. The cells after 24 hrs were lysed with a NP40 buffer solution including proteinase inhibitor cocktail and the protein amount extracted from the cells was quantified by using a Bradford reagent. The quantified protein was boiled for 5 min and isolated by electrophoresis with 10% SDS-PAGE to transfer the isolated proteins to a nitrocellular membrane. A primary antibody of […] and […] was diluted in 2.5% bovine serum albumin at a ratio of 1:1000 and reacted with the protein transferred to the nitrocellular membrane for 20 hrs at room temperature. The primary antibody was reacted and then the nitrocellular membrane was washed three times by using the TBST for 10 min. […] As the measured result, the protein expression of […] and […] was verified and it was shown that the loading amount of the protein was constant by α-tubulin.

Test [3] deals with involucrin. The test can be described thus: Involucrin mRNA expression (RT-PCR) in HaCaT human keratinocytes. Particulars: HaCaT cells, fucosterol 5, 10, 20 μM, 24 hrs, FIG. 9. As to the method:
as §1, with “9.” for “11.”

Test [4] deals with HaCaT human keratinocytes. The test can be described thus: Cornified envelope formation in HaCaT human keratinocytes (absorbance 340 nm). Particulars: HaCaT cells, fucosterol 5, 10, 20 μM, 96 hrs, p<0.05, FIG. 8. As to the method:
HaCaT human keratinocytes were incubated in a Dulbecco's Modified Eagle's Media (DMEM) medium including 10% fetal bovine serum and then put in a 6-well plate with 2×10^5 cell/ml (the final volume of 3 ml). After being incubated for 24 hrs, the medium was removed and fucosterol which was dissolved in the DMEM medium was treated at 5, 10, and 20 μM concentrations, respectively. After incubation for 96 hrs, the incubated medium was removed from the 6-well plate to collect a cell pellet, and the cell pellet was transferred to a 1.5 mL tube and centrifuged for 10 min at 10,000 rpm to remove a supernatant. The obtained pellet was added with a Tris buffer solution including 2% sodium dodecyl sulfate (SDS) and 20 mM dithiothreitol (DTT) and boiled, and the absorbance was measured at 340 nm to evaluate the effect on cornified envelope formation. According to Equation 1 below, the formation degree of the cornified envelope compared with the control group was calculated and the result was illustrated in FIG. 8. Cornified envelope formation amount (%) compared with control group=absorbance of each test material/absorbance of control group×100 […]

Test [5] deals with transglutaminase. The test can be described thus: Transglutaminase protein expression (western blot) in HaCaT human keratinocytes. The settings on record: HaCaT cells, fucosterol 5, 10, 20 μM, 24 hrs, FIG. 10. As to the method:
as §2

For test [6], the system named is loricrin. The test can be described thus: Loricrin protein expression (western blot) in HaCaT human keratinocytes. The settings on record: HaCaT cells, fucosterol 5, 10, 20 μM, 24 hrs, FIG. 10. As to the method: as §2
For test [7], the system named is loricrin. The test can be described thus: Loricrin mRNA expression (RT-PCR) in HaCaT human keratinocytes. The settings on record: HaCaT cells, fucosterol 5, 10, 20 μM, 24 hrs, FIG. 9. As to the method: as §1, with “9.” for “11.”
The test system of test [8] is transglutaminase. The test can be described thus: Transglutaminase mRNA expression (RT-PCR) in HaCaT human keratinocytes. Particulars: HaCaT cells, fucosterol 5, 10, 20 μM, 24 hrs, FIG. 9.
Experimental: HaCaT human keratinocytes were incubated in a Dulbecco's Modified Eagle's Media (DMEM) medium including 10% fetal bovine serum and then put in a 6-well plate with 2×10^5 cell/ml (the final volume of 3 ml). After being incubated for 24 hrs, the medium was removed and fucosterol which was dissolved in the DMEM medium was treated at 5, 10, and 20 μM concentrations, respectively. After 24 hrs, the total RNA was collected by using a TRIzol reagent (Invitrogen, Carlsbad, Calif., USA) and reverse-transcribed and then a reverse transcription-polymerase chain reaction (RT-PCR) analysis was performed below. First, for cDNA synthesis, the RNA was reverse-transcribed by reverse transcriptase. The RT-PCR was performed by specific primers below and the result was illustrated in FIG. 9.

The values below come from patent US9956157B2, “Composition containing fucosterol for skin whitening or moisturizing” (INDUSTRY-ACADEMIC COOPERATION FOUNDATION, YONSEI UNIVERSITY, priority 2014, dated 2018).

With `C/C=C(\CC[C@@H](C)[C@H]1CC[C@H]2[C@@H]3CC=C4C[C@@H](O)CC[C@]4(C)[C@H]3CC[C@]12C)C(C)C` [fucosterol], the “mRNA expression of filaggrin” value with filaggrin is on record as “increased”. The “protein expression of involucrin” value with involucrin [1] was “increased”. Moreover, the “protein expression of TRP-1” value in test [2] is given as “reduced”. The “mRNA expression of involucrin” value with involucrin [3] is listed as “increased”. Also, the cornified envelope formation entry in [4] was “excellent cornified envelope formation effect”. Moreover, the “protein expression of transglutaminase” value in the test on transglutaminase [5] is given as “increased”. In the test with loricrin [6], the “protein expression of loricrin” value is listed as “increased”. The “mRNA expression of loricrin” value with loricrin [7] is “increased”. Further, the “mRNA expression of transglutaminase” value in the test with transglutaminase [8] is given as “increased”.
